According to US20250002954A1, “Novel Compound, Use Thereof, and Method for Producing Same, and Compound-Containing Composition, Method for Producing 4-Trehalosamine, and Microorganism” (Microbial Chemistry Research Foundation, priority 2021, published 2025):

Assays:
[1] = pH buffer effect (pH change on addition of HCl or NaOH); format: physicochemical
Protocol: Using the purified product of 4-trehalosamine obtained in the <Purification process> of production example 10, the functionality of 4-trehalosamine as buffer reagent was determined in the following manner.
A change in pH while 50 μL to 100 μL of 1 M hydrochloric acid (HCl) or 1 M sodium hydroxide (NaOH) was added to 50 mL of aqueous solution of 10 mM 4-trehalosamine (production example 10), 50 mL of aqueous solution of 10 mM trehalose, 50 mL of 10 mM tris, 50 mL of aqueous solution of 10 mM MES (2-(N-morpholino) ethanesulfonic acid), or 50 mL of aqueous solution of 10 mM HEPES (4-(2-hydroxyethyl)-1-piperazinylethane sulfonic acid) was measured with a pH meter (LAQUA F-51, manufactured by HORIBA, Ltd.).

[2] = Dynamic viscoelasticity measurement of corn starch gel; format: physicochemical; settings: corn starch gel with 10% aqueous solution, 4° C., after 96 hours
Protocol: In 20-mL glass vials, corn starch (manufactured by FUJIFILM Wako Pure Chemical Corporation) was mixed with each of the 10% aqueous solution of 4-trehalosamine (4TA), 10% aqueous solution of trehalose (TRH), 10% aqueous solution of sucrose (SCR), and 10% aqueous solution of glycerol (GOL), which are the test samples, or water as control to a final concentration of 15% (w/w) and uniformly suspended, and the suspensions were autoclaved at 121° C. for 20 minutes to gel them. For each of them, 0-hour sample and 96-hour sample were prepared.
After cooling them to room temperature, dynamic viscoelasticity measurement was performed on the 0-hour sample within 4 hours. The 96-hour sample was left to stand at 4° C. for 96 hours and then subjected to dynamic viscoelasticity measurement.
The dynamic viscoelasticity measurement was performed using a MCR300 rheometer (manufactured by Physica, Stuttgart, Germany) under the condition of the gap of a 25-mm parallel plate measurement tool being 1.0 mm. Under the conditions of a fixed frequency of 1.0 Hz, a strain amplitude of 1%, and 25° C., a storage modulus (G′) and a loss modulus (G″) were measured and a loss tangent (tan δ=G″/G′) was calculated. In FIG. 15K, the value of tan δ is indicated on the vertical axis (n=5, mean±S.D.).

[3] = Starch aging inhibiting effect, enzyme assay 1 and 2 (β-amylase degradation of corn starch gel)
Protocol: After the individual test samples were mixed into corn starch gel and left to stand at low temperature for 96 hours, the aging level was evaluated via a degradation experiment using β-amylase. The method described below is an evaluation scheme that is an improvement over the BAP method (K. Kainuma, et al, Journal of the Japanese Society of Starch Science 1981, 28, 235.) and only uses β-amylase.
The 4-trehalosamine (4TA) obtained in production example 10, and trehalose (TRH), sucrose (SCR), and glycerol (hereinafter, sometimes referred to as “GOL”) were each dissolved in water to a final concentration of 10% (w/w), thus preparing aqueous solutions. […]
Quantification (absorbance measurement) of enzyme reaction and sugar were performed for the 24-hour, the 48-hour, or the 96-hour sample in a similar manner to the quantification (absorbance measurement) of enzyme reaction and sugar for the 0-hour sample except that the measurement sample was changed to the 24-hour sample, the 48-hour sample, or the 96-hour sample in the quantification (absorbance measurement) of enzyme reaction and sugar for the 0-hour sample. […]

SMILES: N[C@H]1[C@H](O)[C@@H](O)[C@@H](O[C@H]2O[C@H](CO)[C@@H](O)[C@H](O)[C@H]2O)O[C@@H]1CO [4-trehalosamine]
- pH buffer effect ([1]; 10 mM aqueous solution, 1 M HCl or 1 M NaOH added): strong pH buffer effect comparable that of tris
- pKa ([1]; aqueous solution, estimated from titration): 6.99
- change in loss tangent (tan δ) value [2]: little change or a slight increase in the loss tangent value
- β-amylase degradation rate (starch aging inhibiting effect) ([3]; final concentration 5% to 15%, 96 hours): maintained β-amylase degradation rate at 96 hours significantly high compared to the other gels
- rate of degradation by β-amylase (starch aging inhibiting effect) ([3]; test sample final concentration 10% (w/w), 6° C., 24 to 96 hours): significantly high rate of degradation by β-amylase at and after 24 hours compared to the other gels
